Measured values as given in the NIST ThermoML archive (doi:10.1016/j.tca.2013.08.031).

Test: molar heat capacity at constant volume
Conditions: Fluid (supercritical or subcritical phases), Vacuum adiabatic calorimetry

CCC(C)O (stereo unspecified) [butan-2-ol]
Conditions	molar heat capacity at constant volume [J/K/mol]
533.36 K, Mass density=301.19 kg/m3	394.33
533.36 K, Mass density=347.06 kg/m3	375.06
533.36 K, Mass density=474.07 kg/m3	196.42
533.54 K, Mass density=184.89 kg/m3	510.48
533.54 K, Mass density=198.25 kg/m3	497.8
533.54 K, Mass density=245.67 kg/m3	452.07
533.54 K, Mass density=284.93 kg/m3	412.49
533.54 K, Mass density=286.65 kg/m3	422.42
533.54 K, Mass density=301.19 kg/m3	399.52
533.54 K, Mass density=347.06 kg/m3	375.06
533.54 K, Mass density=474.07 kg/m3	196.42
533.68 K, Mass density=286.65 kg/m3	420.64
533.72 K, Mass density=184.89 kg/m3	467.11
533.72 K, Mass density=198.25 kg/m3	506.55
533.72 K, Mass density=245.67 kg/m3	456.07
533.72 K, Mass density=284.93 kg/m3	412.86
533.72 K, Mass density=301.19 kg/m3	403.96
533.72 K, Mass density=347.06 kg/m3	377.28
533.74 K, Mass density=184.89 kg/m3	332.58
533.76 K, Mass density=184.89 kg/m3	294.56
533.78 K, Mass density=184.89 kg/m3	303.68
533.8 K, Mass density=184.89 kg/m3	307.31
533.81 K, Mass density=184.89 kg/m3	283.59
533.91 K, Mass density=198.25 kg/m3	508.47
533.91 K, Mass density=245.67 kg/m3	462
533.91 K, Mass density=284.93 kg/m3	414.71
533.91 K, Mass density=286.65 kg/m3	429.46
533.91 K, Mass density=301.19 kg/m3	408.41
533.91 K, Mass density=347.06 kg/m3	375.06
534.09 K, Mass density=198.25 kg/m3	520.78
534.09 K, Mass density=245.67 kg/m3	460.22
534.09 K, Mass density=279.19 kg/m3	425.38
534.09 K, Mass density=284.93 kg/m3	420.86
534.09 K, Mass density=301.19 kg/m3	412.12
534.09 K, Mass density=347.06 kg/m3	382.47
534.27 K, Mass density=198.25 kg/m3	538.57
534.27 K, Mass density=245.67 kg/m3	465.85
534.27 K, Mass density=279.19 kg/m3	430.42
534.27 K, Mass density=284.93 kg/m3	420.42
534.27 K, Mass density=286.65 kg/m3	436.5
534.27 K, Mass density=347.06 kg/m3	387.66
534.46 K, Mass density=198.25 kg/m3	527.82
534.46 K, Mass density=245.67 kg/m3	472.82
534.46 K, Mass density=279.19 kg/m3	435.09
534.46 K, Mass density=284.93 kg/m3	425.75
534.46 K, Mass density=286.65 kg/m3	439.47
534.46 K, Mass density=301.19 kg/m3	418.79
534.46 K, Mass density=347.06 kg/m3	400.26
534.64 K, Mass density=184.89 kg/m3	279.36
534.64 K, Mass density=198.25 kg/m3	354.23
534.64 K, Mass density=245.67 kg/m3	484.53
534.64 K, Mass density=276.45 kg/m3	433.39
534.64 K, Mass density=279.19 kg/m3	437.91
534.64 K, Mass density=284.93 kg/m3	426.57
534.64 K, Mass density=301.19 kg/m3	421.75
534.64 K, Mass density=347.06 kg/m3	353.56
534.64 K, Mass density=403.55 kg/m3	223.85
534.82 K, Mass density=198.25 kg/m3	329.47
534.82 K, Mass density=245.67 kg/m3	491.43
534.82 K, Mass density=276.45 kg/m3	435.91
534.82 K, Mass density=279.19 kg/m3	441.54
534.82 K, Mass density=284.93 kg/m3	430.13
534.82 K, Mass density=301.19 kg/m3	429.16
534.82 K, Mass density=347.06 kg/m3	246.08
534.82 K, Mass density=403.55 kg/m3	223.11
535.01 K, Mass density=198.25 kg/m3	313.31
535.01 K, Mass density=245.67 kg/m3	498.39
535.01 K, Mass density=276.45 kg/m3	443.47
535.01 K, Mass density=284.93 kg/m3	435.02
535.01 K, Mass density=301.19 kg/m3	431.39
535.01 K, Mass density=347.06 kg/m3	242.38
535.01 K, Mass density=403.55 kg/m3	225.33
535.19 K, Mass density=198.25 kg/m3	319.91
535.19 K, Mass density=245.67 kg/m3	508.62
535.19 K, Mass density=276.45 kg/m3	453.85
535.19 K, Mass density=279.19 kg/m3	457.11
535.19 K, Mass density=284.93 kg/m3	440.21
535.19 K, Mass density=301.19 kg/m3	440.28
535.19 K, Mass density=347.06 kg/m3	243.12
535.19 K, Mass density=403.55 kg/m3	223.11
535.37 K, Mass density=184.89 kg/m3	286.33
535.37 K, Mass density=198.25 kg/m3	301.3
535.37 K, Mass density=245.67 kg/m3	516.03
535.37 K, Mass density=276.45 kg/m3	460.59
535.37 K, Mass density=279.19 kg/m3	465.85
535.37 K, Mass density=284.93 kg/m3	441.02
535.37 K, Mass density=286.65 kg/m3	467.56
535.37 K, Mass density=301.19 kg/m3	445.47
535.37 K, Mass density=403.55 kg/m3	219.4
535.55 K, Mass density=184.89 kg/m3	286.55
535.55 K, Mass density=245.67 kg/m3	535.08
535.55 K, Mass density=276.45 kg/m3	474.75
535.55 K, Mass density=279.19 kg/m3	472.08
535.55 K, Mass density=284.93 kg/m3	454.96
535.55 K, Mass density=286.65 kg/m3	474.38
535.55 K, Mass density=301.19 kg/m3	458.07
535.55 K, Mass density=347.06 kg/m3	243.12
535.55 K, Mass density=403.55 kg/m3	220.88
535.74 K, Mass density=198.25 kg/m3	286.33
535.74 K, Mass density=245.67 kg/m3	563.92
535.74 K, Mass density=276.45 kg/m3	489.72
535.74 K, Mass density=279.19 kg/m3	488.09
535.74 K, Mass density=284.93 kg/m3	470.52
535.74 K, Mass density=286.65 kg/m3	487.57
535.74 K, Mass density=301.19 kg/m3	477.34
535.74 K, Mass density=347.06 kg/m3	249.05
